The text below walks through data of US9643967B2, “Pyrrolo[3,2-c]pyridine derivatives as TLR inhibitors” (TAKEDA PHARMACEUTICAL COMPANY LIMITED, priority 2013, dated 2017).

Molecules are shown by their SMILES. Read-outs that look alike come from different tables or passages of the source.

The target of the assay is T1, mTLR7 (Mus musculus, UniProt P58681).
T1 construct: Splenocytes isolated from male C57/BL6 mice; from tissue; host or cells: splenocytes from the spleen of male C57BL/6 mice
T1 sequence (P58681 27-1050): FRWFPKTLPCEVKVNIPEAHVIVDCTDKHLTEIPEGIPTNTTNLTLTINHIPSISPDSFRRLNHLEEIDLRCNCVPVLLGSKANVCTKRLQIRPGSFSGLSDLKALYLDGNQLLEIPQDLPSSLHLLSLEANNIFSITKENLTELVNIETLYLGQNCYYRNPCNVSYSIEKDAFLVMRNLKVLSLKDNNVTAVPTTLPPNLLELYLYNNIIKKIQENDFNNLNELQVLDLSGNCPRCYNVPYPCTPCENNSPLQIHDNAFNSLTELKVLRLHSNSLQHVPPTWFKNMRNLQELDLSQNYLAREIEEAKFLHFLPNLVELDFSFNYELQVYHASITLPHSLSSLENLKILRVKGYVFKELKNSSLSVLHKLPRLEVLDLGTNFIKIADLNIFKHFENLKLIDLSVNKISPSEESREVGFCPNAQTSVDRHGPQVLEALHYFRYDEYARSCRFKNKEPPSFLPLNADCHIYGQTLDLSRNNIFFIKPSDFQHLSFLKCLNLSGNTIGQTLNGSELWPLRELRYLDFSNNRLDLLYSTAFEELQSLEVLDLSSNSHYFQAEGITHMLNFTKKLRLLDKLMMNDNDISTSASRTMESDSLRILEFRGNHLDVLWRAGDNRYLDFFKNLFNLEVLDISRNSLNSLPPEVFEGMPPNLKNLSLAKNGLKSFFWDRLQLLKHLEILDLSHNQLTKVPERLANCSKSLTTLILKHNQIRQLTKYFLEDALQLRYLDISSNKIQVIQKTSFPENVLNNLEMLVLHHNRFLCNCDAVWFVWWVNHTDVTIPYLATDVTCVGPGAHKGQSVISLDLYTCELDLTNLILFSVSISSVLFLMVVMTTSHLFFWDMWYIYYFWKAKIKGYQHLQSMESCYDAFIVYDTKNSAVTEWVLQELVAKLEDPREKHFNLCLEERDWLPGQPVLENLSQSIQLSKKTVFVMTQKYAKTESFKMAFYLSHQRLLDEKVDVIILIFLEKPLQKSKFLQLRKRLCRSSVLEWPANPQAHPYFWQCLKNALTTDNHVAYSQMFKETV
Nature of the assay: mTLR7 antagonism (IL-6 and TNF-α release assay) in mouse splenocytes, R0006/DOTAP stimulated. Format: cell-based. As to conditions: 1 μM, mouse splenocytes. A digest of the protocol:
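C57BL6 splenocytes (0.2 million/well) preincubated 30 min with compounds (30 μM to 1 nM, 0.3% DMSO), then stimulated with R0006/DOTAP liposome complex at 1 μg/ml final, overnight, 37 °C, 5% CO2. IL-6 and TNF-α in supernatant by ELISA; IC50 from inhibition curves.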

[1] abbreviates: IL-6 release, read-out: mTLR7 inhibitory activity (% at 1 μM), IL-6.
The mark [2] stands for this setting: TNF-α release, read-out: mTLR7 inhibitory activity (% at 1 μM), TNF-α.

As for `Cc1nc(-c2ccc(N3CCN(C(C)C)CC3)cc2)c2cc(CCN3CCOCC3)[nH]c2c1C` [Example B6, 4-[2-[4-[4-(4-isopropylpiperazin-1-yl)phenyl]-6,7-dimethyl-1H-pyrrolo[3,2-c]pyridin-2-yl]ethyl]morpholine], the inhibition at 1 µM worked out at 100% under setting [1] and 100% under setting [2]. With `Cc1nc(-c2ccc(N3CCN(C)CC3)cc2)c2cc(CCN3CCOCC3)[nH]c2c1C` [Example B7, 4-[2-[6,7-dimethyl-4-[4-(4-methylpiperazin-1-yl)phenyl]-1H-pyrrolo[3,2-c]pyridin-2-yl]ethyl]morpholine], the inhibition at 1 µM under setting [2] worked out at 100%.

In the case of `CCN1CCN(c2ccc(-c3nc(C)c(C)c4[nH]c(CCN5CCOCC5)cc34)cc2)CC1` [Example B8, 4-[2-[4-[4-(4-ethylpiperazin-1-yl)phenyl]-6,7-dimethyl-1H-pyrrolo[3,2-c]pyridin-2-yl]ethyl]morpholine], under setting [2], the inhibition at 1 µM is 88%. Consider `Cc1nc(-c2ccc(N3CCN(C(C)C)CC3)cc2)c2cc(CCN3CCCC3)[nH]c2c1C` [Example B10, 4-[4-(4-isopropylpiperazin-1-yl)phenyl]-6,7-dimethyl-2-(2-pyrrolidin-1-ylethyl)-1H-pyrrolo[3,2-c]pyridine], for which the inhibition at 1 µM was determined as 100% under setting [1] and 100% under setting [2]. For `Cc1cc2c(cc(CCN3CCOCC3)n2C)c(-c2ccc(N3CCN(C(C)C)CC3)cc2)n1` [Example B11, 4-[2-[4-[4-(4-isopropylpiperazin-1-yl)phenyl]-1,6-dimethyl-pyrrolo[3,2-c]pyridin-2-yl]ethyl]morpholine], the inhibition at 1 µM stood at 100% under setting [1] and 100% under setting [2]. For `Cc1cc2c(cc(CCN3CCOCC3)n2C)c(-c2ccc(N3CCN(C(C)C)CC3)c(F)c2)n1` [Example B14, 4-[2-[4-[3-fluoro-4-(4-isopropylpiperazin-1-yl)phenyl]-1,6-dimethyl-pyrrolo[3,2-c]pyridin-2-yl]ethyl]morpholine], the inhibition at 1 µM under setting [1] came out at 100% and the inhibition at 1 µM under setting [2] was 100%. As to `Cc1cc2c(cc(CCN3CCOCC3)n2C)c(-c2ccc(N3CCN(C(C)C)CC3)cc2C)n1` [Example B15, 4-[2-[4-[4-(4-isopropylpiperazin-1-yl)-2-methyl-phenyl]-1,6-dimethyl-pyrrolo[3,2-c]pyridin-2-yl]ethyl]morpholine], the inhibition at 1 µM under setting [1] amounted to 88% and the inhibition at 1 µM under setting [2] stood at 83%. The like results for `Cc1cc2c(cc(CCN3CCOCC3)n2C)c(-c2ccc(N3CCN(C(C)C)CC3)c(C)c2)n1` [Example B16, 4-[2-[4-[4-(4-isopropylpiperazin-1-yl)-3-methyl-phenyl]-1,6-dimethyl-pyrrolo[3,2-c]pyridin-2-yl]ethyl]morpholine] were, in that order, 100% and 100%.

On to `Cc1cc2c(cc(CCN3CCOCC3)n2C)c(-c2ccc(N3CCN(C(C)C)CC3)cc2C(F)(F)F)n1` [Example B17, 4-[2-[4-[4-(4-isopropylpiperazin-1-yl)-2-(trifluoromethyl)phenyl]-1,6-dimethyl-pyrrolo[3,2-c]pyridin-2-yl]ethyl]morpholine], for which the inhibition at 1 µM is, setting by setting: under setting [1], 93%; under setting [2], 90%. The like results for `Cc1cc2c(cc(CCN3CCOCC3)n2C)c(-c2ccc(N3CCN(C(C)C)CC3)c(C(F)(F)F)c2)n1` [Example B18, 4-[2-[4-[4-(4-isopropylpiperazin-1-yl)-3-(trifluoromethyl)phenyl]-1,6-dimethyl-pyrrolo[3,2-c]pyridin-2-yl]ethyl]morpholine] were, in that order, 100% and 100%.

As for `Cc1cc2c(cc(CCN3CCOCC3)n2C)c(-c2ccc(N3CCN(C(C)C)CC3)cc2F)n1` [Example B19, 4-[2-[4-[2-fluoro-4-(4-isopropylpiperazin-1-yl)phenyl]-1,6-dimethyl-pyrrolo[3,2-c]pyridin-2-yl]ethyl]morpholine], the inhibition at 1 µM by setting is: under setting [1], 100%; under setting [2], 100%.

Turning to `COc1cc(N2CCN(C(C)C)CC2)ccc1-c1nc(C)cc2c1cc(CCN1CCOCC1)n2C` [Example B20, 4-[2-[4-[4-(4-isopropylpiperazin-1-yl)-2-methoxy-phenyl]-1,6-dimethyl-pyrrolo[3,2-c]pyridin-2-yl]ethyl]morpholine], the inhibition at 1 µM runs as follows: under setting [1], 70%; under setting [2], 57%. On to `Cc1cc2c(cc(CCN3CCOCC3)n2C)c(-c2cccc(N3CCN(C(C)C)CC3)c2)n1` [Example B21, 4-[2-[4-[3-(4-isopropylpiperazin-1-yl)phenyl]-1,6-dimethyl-pyrrolo[3,2-c]pyridin-2-yl]ethyl]morpholine], for which the inhibition at 1 µM reads like this: under setting [1], 100%; under setting [2], 100%.

Regarding `COc1cc(-c2nc(C)cc3c2cc(CCN2CCOCC2)n3C)ccc1N1CCN(C(C)C)CC1` [Example B22, 4-[2-[4-[4-(4-isopropylpiperazin-1-yl)-3-methoxy-phenyl]-1,6-dimethyl-pyrrolo[3,2-c]pyridin-2-yl]ethyl]morpholine], the inhibition at 1 µM under setting [1] was 100% and the inhibition at 1 µM under setting [2] came to 100%. Turning to `Cc1cc2c(cc(CCN3CCOCC3)n2C)c(-c2ccc(N3CCN(C(C)C)[C@@H](C)C3)cc2)n1` [Example B23, 4-[2-[4-[4-[(3S)-4-isopropyl-3-methyl-piperazin-1-yl]phenyl]-1,6-dimethyl-pyrrolo[3,2-c]pyridin-2-yl]ethyl]morpholine], the inhibition at 1 µM stood at 100% under setting [1] and 100% under setting [2]. Turning to `Cc1cc2c(cc(CCN3CCOCC3)n2C)c(C2CCC(N3CCN(C(C)C)CC3)CC2)n1` (stereo not drawn) [Example B26, 4-[2-[4-[4-(4-isopropylpiperazin-1-yl)cyclohexyl]-1,6-dimethyl-pyrrolo[3,2-c]pyridin-2-yl]ethyl]morpholine], under “IL-6 release”, the “mTLR7 inhibitory activity (% at 1 μM), IL-6” value turned out to be 62%. In addition, where the note is “TNF-α release”, the “mTLR7 inhibitory activity (% at 1 μM), TNF-α” value is on record as 47%. The like results for `Cc1cc2c(cc(CCN3CCOCC3)n2C)c(C2CCC(N3CCN(C(C)C)CC3)CC2)n1` (stereo not drawn) [Example B27, 4-[2-[4-[4-(4-isopropylpiperazin-1-yl)cyclohexyl]-1,6-dimethyl-pyrrolo[3,2-c]pyridin-2-yl]ethyl]morpholine] were, in that order, 88% and 77%. Regarding `Cc1cc2c(cc(CCN3CCOCC3)n2C)c(-c2ccc(C3CCN(C(C)C)CC3)cc2)n1` [Example B31, 4-[2-[4-[4-(1-isopropyl-4-piperidyl)phenyl]-1,6-dimethyl-pyrrolo[3,2-c]pyridin-2-yl]ethyl]morpholine], the inhibition at 1 µM by setting is: under setting [1], 100%; under setting [2], 100%. As to `CC(C)N1CCN(c2ccc(-c3nccc4[nH]c(CCCN5CCOCC5)cc34)cc2)CC1` [Example C1, 4-[3-[4-[4-(4-isopropylpiperazin-1-yl)phenyl]-1H-pyrrolo[3,2-c]pyridin-2-yl]propyl]morpholine], under setting [2], the inhibition at 1 µM was 100%.

Regarding `CN1CCN(c2ccc(-c3nccc4[nH]c(CCCN5CCOCC5)cc34)cc2)CC1` [Example C2, 4-[3-[4-[4-(4-methylpiperazin-1-yl)phenyl]-1H-pyrrolo[3,2-c]pyridin-2-yl]propyl]morpholine], under setting [2], the inhibition at 1 µM was determined as 100%. Turning to `Cc1cc2[nH]c(CCCN3CCOCC3)cc2c(-c2ccc(N3CCN(C(C)C)CC3)cc2)n1` [Example C3, 4-[3-[4-[4-(4-isopropylpiperazin-1-yl)phenyl]-6-methyl-1H-pyrrolo[3,2-c]pyridin-2-yl]propyl]morpholine], the inhibition at 1 µM worked out at 100% under setting [1] and 100% under setting [2]. As to `Cc1cc2[nH]c(CCCN3CCCCC3)cc2c(-c2ccc(N3CCN(C(C)C)CC3)cc2)n1` [Example C5, 4-[4-(4-isopropylpiperazin-1-yl)phenyl]-6-methyl-2-[3-(1-piperidyl)propyl]-1H-pyrrolo[3,2-c]pyridine], the inhibition at 1 µM under setting [1] came to 100% and the inhibition at 1 µM under setting [2] stood at 97%. The like results for `Cc1cc2c(cc(CCCN3CCOCC3)n2C)c(-c2ccc(N3CCN(C(C)C)CC3)cc2)n1` [Example C6, 4-[3-[4-[4-(4-isopropylpiperazin-1-yl)phenyl]-1,6-dimethyl-pyrrolo[3,2-c]pyridin-2-yl]propyl]morpholine] were, in that order, 100% and 100%.
